Legend:
Type in all cases: biochemical
JAK2-JH1JH2 = JAK2-JH1JH2 (Homo sapiens (Human), UniProt O60674); test: Enzymatic inhibition assay (RapidFire HTMS), JAK2; details: 30 μM ATP, 40 μM substrate
How it was run: (§1)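 Quenched with 0.5% TFA plus internal-standard peptide; phosphorylated product quantified by RapidFire C4 SPE–ESI-MS, 11-point 1:3 or 1:4 dilutions in duplicate.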

JAK1-JH1JH2 = JAK1-JH1JH2 (Homo sapiens (Human), UniProt P23458); test: Enzymatic inhibition assay (RapidFire HTMS), JAK1; details: 12.5 μM ATP, 200 μM substrate; read-out: JAK1-JH2JH1 IC50
Sequence of JAK1-JH1JH2 (P23458 574-1154): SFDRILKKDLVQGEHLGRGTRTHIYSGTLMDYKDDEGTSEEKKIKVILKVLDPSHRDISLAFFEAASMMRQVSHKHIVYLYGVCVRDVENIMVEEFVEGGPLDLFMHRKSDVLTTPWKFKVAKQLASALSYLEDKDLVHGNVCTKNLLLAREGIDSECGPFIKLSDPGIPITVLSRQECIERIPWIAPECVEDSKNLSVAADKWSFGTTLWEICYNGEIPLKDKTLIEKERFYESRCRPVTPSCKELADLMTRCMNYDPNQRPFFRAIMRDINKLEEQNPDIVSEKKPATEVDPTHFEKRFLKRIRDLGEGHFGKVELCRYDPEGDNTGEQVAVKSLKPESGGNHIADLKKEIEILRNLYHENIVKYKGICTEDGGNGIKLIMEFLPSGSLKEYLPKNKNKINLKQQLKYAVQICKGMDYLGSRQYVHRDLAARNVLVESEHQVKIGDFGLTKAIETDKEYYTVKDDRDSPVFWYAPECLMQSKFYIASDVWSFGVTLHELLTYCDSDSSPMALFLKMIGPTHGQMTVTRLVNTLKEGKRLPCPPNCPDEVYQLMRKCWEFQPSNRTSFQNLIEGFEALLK
How it was run: as §1

Tyk2-JH1JH2 = Tyk2-JH1JH2 (Homo sapiens (Human), UniProt P29597, C1142A/C936A); test: Enzymatic inhibition assay (RapidFire HTMS), Tyk2; details: 50 μM ATP, 200 μM substrate
Sequence of Tyk2-JH1JH2 (P29597 580-1182 C936A/C1142A): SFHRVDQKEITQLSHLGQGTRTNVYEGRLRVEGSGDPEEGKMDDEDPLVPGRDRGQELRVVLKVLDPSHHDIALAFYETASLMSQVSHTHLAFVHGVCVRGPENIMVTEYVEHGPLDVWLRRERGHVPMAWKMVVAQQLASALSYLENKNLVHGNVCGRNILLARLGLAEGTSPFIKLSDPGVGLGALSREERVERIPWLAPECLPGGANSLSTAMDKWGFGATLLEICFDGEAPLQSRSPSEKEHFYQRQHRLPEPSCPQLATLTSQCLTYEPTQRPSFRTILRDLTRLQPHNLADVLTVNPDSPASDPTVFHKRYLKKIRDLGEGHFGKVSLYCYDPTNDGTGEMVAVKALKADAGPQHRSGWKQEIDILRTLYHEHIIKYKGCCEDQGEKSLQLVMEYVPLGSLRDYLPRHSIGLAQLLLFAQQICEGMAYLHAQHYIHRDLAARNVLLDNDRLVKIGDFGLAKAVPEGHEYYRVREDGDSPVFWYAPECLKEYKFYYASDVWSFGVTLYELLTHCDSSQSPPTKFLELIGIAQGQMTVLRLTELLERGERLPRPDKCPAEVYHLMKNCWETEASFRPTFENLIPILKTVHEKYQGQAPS
How it was run: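 Compounds were tested in duplicate as 11-point 1:3 or 1:4 DMSO dilutions (≤0.25% DMSO final) in 20 μL reactions at 25 °C for 90 min, with Tyk2 pre-incubated 30 min with 2 mM ATP. Reactions were quenched with TFA plus internal standard peptide, and phosphorylated product was quantified by RapidFire C4 SPE–ESI MS.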

JAK3-JH1JH2 = JAK3-JH1JH2 (Homo sapiens (Human), UniProt P52333); test: Enzymatic inhibition assay (RapidFire HTMS), JAK3; details: 150 μM ATP, 40 μM substrate
Sequence of JAK3-JH1JH2 (P52333 512-1124): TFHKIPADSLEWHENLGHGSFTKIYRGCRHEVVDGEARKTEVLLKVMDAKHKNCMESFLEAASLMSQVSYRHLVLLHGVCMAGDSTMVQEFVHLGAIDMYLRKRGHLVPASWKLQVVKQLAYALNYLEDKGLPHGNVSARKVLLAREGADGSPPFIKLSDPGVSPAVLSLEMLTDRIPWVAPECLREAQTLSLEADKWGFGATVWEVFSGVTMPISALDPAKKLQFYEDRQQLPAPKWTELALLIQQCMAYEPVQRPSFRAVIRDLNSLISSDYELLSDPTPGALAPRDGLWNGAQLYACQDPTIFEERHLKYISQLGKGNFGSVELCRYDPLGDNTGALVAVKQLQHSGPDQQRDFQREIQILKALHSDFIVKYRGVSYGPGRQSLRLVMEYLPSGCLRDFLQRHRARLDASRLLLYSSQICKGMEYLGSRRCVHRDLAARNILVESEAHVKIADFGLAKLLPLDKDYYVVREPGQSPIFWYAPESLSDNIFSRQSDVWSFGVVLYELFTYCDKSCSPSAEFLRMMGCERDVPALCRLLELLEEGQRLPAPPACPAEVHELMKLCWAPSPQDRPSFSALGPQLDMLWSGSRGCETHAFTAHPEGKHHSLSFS
How it was run: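 Compounds tested in duplicate over 11-point 1:3 or 1:4 dilution series; no-enzyme wells as negative control. After 45 min at 25 °C, TFA quench with internal standard, and phosphorylated product quantified by RapidFire–QTrap mass spectrometry relative to the uninhibited reaction.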

Sequence of JAK2-JH1JH2 (O60674 532-1132): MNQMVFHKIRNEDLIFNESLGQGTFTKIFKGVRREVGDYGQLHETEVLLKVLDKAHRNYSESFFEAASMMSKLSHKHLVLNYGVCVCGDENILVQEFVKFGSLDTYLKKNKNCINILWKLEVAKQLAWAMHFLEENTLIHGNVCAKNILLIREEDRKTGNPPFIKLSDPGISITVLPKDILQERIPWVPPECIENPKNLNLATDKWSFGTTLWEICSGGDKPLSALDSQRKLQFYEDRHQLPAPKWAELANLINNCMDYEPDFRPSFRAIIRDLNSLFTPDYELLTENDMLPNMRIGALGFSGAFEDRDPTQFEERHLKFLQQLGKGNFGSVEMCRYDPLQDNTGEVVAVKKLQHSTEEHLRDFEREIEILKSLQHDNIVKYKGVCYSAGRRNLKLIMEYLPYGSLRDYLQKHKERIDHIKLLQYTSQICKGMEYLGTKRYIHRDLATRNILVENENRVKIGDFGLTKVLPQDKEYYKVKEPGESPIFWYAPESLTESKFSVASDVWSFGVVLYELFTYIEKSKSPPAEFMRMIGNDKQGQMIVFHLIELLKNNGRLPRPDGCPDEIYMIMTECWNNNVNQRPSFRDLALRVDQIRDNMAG

Row | IC50 (JAK2-JH1JH2) | IC50 (JAK1-JH1JH2) | IC50 (Tyk2-JH1JH2) | IC50 (JAK3-JH1JH2) | SMILES
1 | 30.1 nM | 0.4 nM | 35.5 nM | 851 nM | CS(=O)(=O)c1ccc(-c2ccc(-c3nc4cnc5[nH]ccc5c4n3[C@H]3CC[C@H](CC#N)CC3)cc2)cc1 [Ex. 91, 2-((1r,4r)-4-(2-(4′-(Methylsulfonyl)-[1,1′-biphenyl]-4-yl)imidazo[4,5-d]pyrrolo[2,3-b]pyridin-1(6H)-yl)cyclohexyl)acetonitrile]
2 | 11.7 nM | 0.4 nM | 33.6 nM | 874 nM | N#CC[C@H]1CC[C@H](n2c(-c3ccc(C(=O)c4ccccc4)cc3)nc3cnc4[nH]ccc4c32)CC1 [Ex. 92, 2-((1r,4r)-4-(2-(4-Benzoylphenyl)imidazo[4,5-d]pyrrolo[2,3-b]pyridin-1(6H)-yl)cyclohexyl)acetonitrile]
3 | 12 nM | 0.5 nM | 4.5 nM | 181 nM | CC(C)(O)C1CCN(C(=O)Cc2nc3cnc4[nH]ccc4c3n2[C@H]2CC[C@H](CC#N)CC2)CC1 [Ex. 93, 2-((1r,4r)-4-(2-(2-(4-(2-Hydroxypropan-2-yl)piperidin-1-yl)-2-oxoethyl)imidazo[4,5-d]pyrrolo[2,3-b]pyridin-1(6H)-yl)cyclohexyl)acetonitrile]
4 | 20.5 nM | 0.5 nM | 12.1 nM | 264 nM | N#CC[C@H]1CC[C@H](n2c(CNC(=O)CC3CC3)nc3cnc4[nH]ccc4c32)CC1 [Ex. 94, N-((1-((1r,4r)-4-(Cyanomethyl)cyclohexyl)-1,6-dihydroimidazo[4,5-d]pyrrolo[2,3-b]pyridin-2-yl)methyl)-2-cyclopropylacetamide]
5 | 0.6 nM | 0.5 nM | 1.4 nM | 18.7 nM | N#CC[C@H]1CC[C@H](n2c(CN/C(CC3CCCCC3)=N/O)nc3cnc4[nH]ccc4c32)CC1 [Ex. 95]
6 | 33.8 nM | 0.5 nM | 49.6 nM | 460 nM | N#CC[C@H]1CC[C@H](n2c(-c3ccc(C#N)cc3)nc3cnc4[nH]ccc4c32)CC1 [Ex. 96, 4-(1-((1r,4r)-4-(Cyanomethyl)cyclohexyl)-1,6-dihydroimidazo[4,5-d]pyrrolo[2,3-b]pyridin-2-yl)benzonitrile]
7 | 45.1 nM | 0.5 nM | 26.9 nM | 3880 nM | N#CC[C@H]1CC[C@H](n2c(CNS(=O)(=O)c3ccc(C#N)cc3)nc3cnc4[nH]ccc4c32)CC1 [Ex. 97, 4-Cyano-N-((1-((1r,4r)-4-(cyanomethyl)cyclohexyl)-1,6-dihydroimidazo[4,5-d]pyrrolo[2,3-b]pyridin-2-yl)methyl)benzenesulfonamide]
8 | 9.3 nM | 0.5 nM | 13 nM | 117 nM | CSc1nccc(-c2nc3cnc4[nH]ccc4c3n2[C@H]2CC[C@H](CC#N)CC2)n1 [Ex. 98, 2-((1r,4r)-4-(2-(2-(Methylthio)pyrimidin-4-yl)imidazo[4,5-d]pyrrolo[2,3-b]pyridin-1(6H)-yl)cyclohexyl)acetonitrile]
9 | 29.7 nM | 0.5 nM | 6.7 nM | 182 nM | CC(C)(C)C/C(=N/O)NCc1nc2cnc3[nH]ccc3c2n1[C@H]1CC[C@H](CC#N)CC1 [Ex. 101]
10 | 11.5 nM | 0.5 nM | 7.4 nM | 201 nM | N#CC[C@H]1CC[C@H](n2c(CC(=O)NCC(O)c3ccccc3)nc3cnc4[nH]ccc4c32)CC1 (stereo partly shown) [Ex. 102, 2-(1-((1r,4r)-4-(Cyanomethyl)cyclohexyl)-1,6-dihydroimidazo[4,5-d]pyrrolo[2,3-b]pyridin-2-yl)-N-(2-hydroxy-2-phenylethyl)acetamide]
11 | 19.4 nM | 0.6 nM | 6.9 nM | 204 nM | N#CC[C@H]1CC[C@H](n2c(CC(=O)N3CCC(C#N)CC3)nc3cnc4[nH]ccc4c32)CC1 [Ex. 105, 1-(2-(1-((1r,4r)-4-(Cyanomethyl)cyclohexyl)-1,6-dihydroimidazo[4,5-d]pyrrolo[2,3-b]pyridin-2-yl)acetyl)piperidine-4-carbonitrile]
12 | 14.3 nM | 0.6 nM | 11.2 nM | 149 nM | N#CC[C@H]1CC[C@H](n2c(CC(=O)NCC(O)CO)nc3cnc4[nH]ccc4c32)CC1 (stereo partly shown) [Ex. 106, 2-(1-((1r,4r)-4-(Cyanomethyl)cyclohexyl)-1,6-dihydroimidazo[4,5-d]pyrrolo[2,3-b]pyridin-2-yl)-N-(2,3-dihydroxypropyl)acetamide]
13 | 18.2 nM | 0.6 nM | 5.1 nM | 142 nM | N#CC[C@H]1CC[C@H](n2c(CC(=O)N3CCC(F)(F)CC3)nc3cnc4[nH]ccc4c32)CC1 [Ex. 107, 2-((1r,4r)-4-(2-(2-(4,4-Difluoropiperidin-1-yl)-2-oxoethyl)imidazo[4,5-d]pyrrolo[2,3-b]pyridin-1(6H)-yl)cyclohexyl)acetonitrile]
14 | 7.5 nM | 0.6 nM | 11.3 nM | 135 nM | N#CC[C@H]1CC[C@H](n2c(COC(=O)Nc3ccccc3)nc3cnc4[nH]ccc4c32)CC1 [Ex. 109, (1-((1r,4r)-4-(Cyanomethyl)cyclohexyl)-1,6-dihydroimidazo[4,5-d]pyrrolo[2,3-b]pyridin-2-yl)methyl Phenylcarbamate]
15 | 29 nM | 0.6 nM | 17.4 nM | 416 nM | N#CC[C@H]1CC[C@H](n2c(CN/C(=N\O)C3CC3)nc3cnc4[nH]ccc4c32)CC1 [Ex. 110, (EZ)—N-((1-((1r,4r)-4-(Cyanomethyl)cyclohexyl)-1,6-dihydroimidazo[4,5-d]pyrrolo[2,3-b]pyridin-2-yl)methyl)-N′-hydroxycyclopropanecarboximidamide]
16 | 4 nM | 0.6 nM | 6.3 nM | 68 nM | N#CC[C@H]1CC[C@H](n2c(CC(=O)Nc3cccnc3)nc3cnc4[nH]ccc4c32)CC1 [Ex. 111, 2-(1-((1r,4r)-4-(Cyanomethyl)cyclohexyl)-1,6-dihydroimidazo[4,5-d]pyrrolo[2,3-b]pyridin-2-yl)-N-(pyridin-3-yl)acetamide]
17 | 3.6 nM | 0.6 nM | 40.8 nM | 161 nM | N#CC[C@H]1CC[C@H](n2c(CO/N=C(\N)CC3CC3)nc3cnc4[nH]ccc4c32)CC1 [Ex. 112, (Z)—N-((1-((1r,4r)-4-(Cyanomethyl)cyclohexyl)-1,6-dihydroimidazo[4,5-d]pyrrolo[2,3-b]pyridin-2-yl)methoxy)-2-cyclopropylacetimidamide]
18 | 10.2 nM | 0.6 nM | 11.2 nM | 322 nM | COCc1nc2cnc3[nH]ccc3c2n1[C@H]1CC[C@H](CC#N)CC1 [Ex. 113, 2-((1r,4r)-4-(2-(Methoxymethyl)imidazo[4,5-d]pyrrolo[2,3-b]pyridin-1(6H)-yl)cyclohexyl)acetonitrile]
19 | 4.8 nM | 0.6 nM | 12.7 nM | 102 nM | N#CC[C@H]1CC[C@H](n2c(C(=O)NCCO)nc3cnc4[nH]ccc4c32)CC1 [Ex. 114, 1-((1r,4r)-4-(Cyanomethyl)cyclohexyl)-N-(2-hydroxyethyl)-1,6-dihydroimidazo[4,5-d]pyrrolo[2,3-b]pyridine-2-carboxamide]
20 | 73.2 nM | 0.6 nM | 86.2 nM | 754 nM | N#CC[C@H]1CC[C@H](n2c(-c3ccc(C#N)nc3)nc3cnc4[nH]ccc4c32)CC1 [Ex. 115, 5-(1-((1r,4r)-4-(Cyanomethyl)cyclohexyl)-1,6-dihydroimidazo[4,5-d]pyrrolo[2,3-b]pyridin-2-yl)picolinonitrile]
21 | 86.7 nM | 0.6 nM | 50.9 nM | 1190 nM | CC(C)(O)CC(=O)NCc1nc2cnc3[nH]ccc3c2n1[C@H]1CC[C@H](CC#N)CC1 [Ex. 116, N-((1-((1r,4r)-4-(Cyanomethyl)cyclohexyl)-1,6-dihydroimidazo[4,5-d]pyrrolo[2,3-b]pyridin-2-yl)methyl)-3-hydroxy-3-methylbutanamide]
22 | 3.5 nM | 0.7 nM | 5.4 nM | 50.5 nM | N#CC[C@H]1CC[C@H](n2c(CC(=O)Nc3ccncc3)nc3cnc4[nH]ccc4c32)CC1 [Ex. 118, 2-(1-((1r,4r)-4-(Cyanomethyl)cyclohexyl)-1,6-dihydroimidazo[4,5-d]pyrrolo[2,3-b]pyridin-2-yl)-N-(pyridin-4-yl)acetamide]
23 | 8.8 nM | 0.7 nM | 15.7 nM | 117 nM | N#CC[C@H]1CC[C@H](n2c(-c3cncs3)nc3cnc4[nH]ccc4c32)CC1 [Ex. 119, 2-((1r,4r)-4-(2-(Thiazol-5-yl)imidazo[4,5-d]pyrrolo[2,3-b]pyridin-1(6H)-yl)cyclohexyl)acetonitrile]
24 | 16 nM | 0.7 nM | 19.1 nM | 228 nM | COCCNC(=O)Cc1nc2cnc3[nH]ccc3c2n1[C@H]1CC[C@H](CC#N)CC1 [Ex. 120, 2-(1-((1r,4r)-4-(Cyanomethyl)cyclohexyl)-1,6-dihydroimidazo[4,5-d]pyrrolo[2,3-b]pyridin-2-yl)-N-(2-methoxyethyl)acetamide]

Row | SMILES | IC50 (JAK2-JH1JH2) | IC50 (JAK1-JH1JH2) | IC50 (Tyk2-JH1JH2) | IC50 (JAK3-JH1JH2)
25 | C[Si](C)(C)CNC(=O)Cc1nc2cnc3[nH]ccc3c2n1[C@H]1CC[C@H](CC#N)CC1 [Ex. 99, 2-(1-((1r,4r)-4-(Cyanomethyl)cyclohexyl)-1,6-dihydroimidazo[4,5-d]pyrrolo[2,3-b]pyridin-2-yl)-N-((trimethylsilyl)methyl)acetamide] | 30.9 nM | 0.5 nM | 29.2 nM | 276 nM

From patent US10981911B2, “Imidazopyrrolopyridine as inhibitors of the JAK family of kinases” (Janssen Pharmaceutica NV, priority 2016, dated 2021)
